Values quoted from earlier work, collected in patent US12582584B2, “Oxidizer and acid based system and regimen for enhancing skin appearance” (L'OREAL, priority 2021, dated 2026).

Settings: acute oral toxicity, mutagenicity, skin irritation, skin sensitization, phototoxicity

CC(c1ccccc1)c1ccc(O)cc1O (stereo not shown) [Phenylethyl resorcinol]
Adverse effects in basic toxicological tests: has not shown adverse effects
